Results taken from publication PMC7824081, “Inhibition of DOT1L by Half-Selenopsammaplin A Analogs Suppresses Tumor Growth and EMT-Mediated Metastasis in Triple-Negative Breast Cancer” (Pharmaceuticals, 2020).
pIC50: −log10 of the molar value.

Columns and labels:
[1] = test system: MCF10A normal breast epithelial cells; assay: SRB cell proliferation assay, MCF10A; format: cell-based, human; details: Homo sapiens, MCF-10A, 72 h
Procedure: Human breast epithelial cell line (MCF10A) and human TNBC cell lines (MDA-MB-468, MDA-MB-231, Hs578T, and HCC38 cells) were provided by the American Type Culture Collection (Manassas, VA, USA). MCF10A cells were cultured in Dulbecco’s Modified Eagle’s Medium/Nutrient Mixture F-12 containing 5% donor horse serum, 100 ng/mL cholera toxin, 10 µg/mL human insulin, 20 ng/mL epidermal growth factor, 0.5 µg/mL hydrocortisone, and penicillin-streptomycin (sodium penicillin G: 100 units/mL; streptomycin: 100 μg/mL). The TNBC cells were cultured in medium [Dulbecco’s Modified Eagle’s Medium for MDA-MB-468, MDA-MB-231, and Hs578T cells; Roswell Park Memorial Institute 1640 medium for HCC38 cells] supplemented with penicillin-streptomycin and 10% fetal bovine serum at 37 °C in a humidified incubator with 5% carbon dioxide. MCF10A cells were cultured in DMEM/F12 containing 5% donor horse serum, 100 ng/mL cholera toxin, 10 µg/mL human insulin, 20 ng/mL epidermal growth factor, 0.5 µg/mL hydrocortisone and penicillin-streptomycin. All reagents used for cell culture, including culture medium, fetal bovine serum, trypsin-EDTA solution (1×), and penicillin-streptomycin solution (100×), were purchased from Gibco (Grand Island, NE, USA). Laemmli sample buffer (2×) and 2-mercaptoethanol were purchased from Bio-Rad Laboratories, Inc. (Hercules, CA, USA). EPZ-5676 was purchased from Cayman Chemical (Ann Arbor, MI, USA). Dimethyl sulfoxide (DMSO), bicinchoninic acid, copper (II) sulfate solution, bovine serum albumin (BSA), trichloroacetic acid, sulforhodamine B (SRB), and paclitaxel were purchased from Sigma–Aldrich (St. Louis, MO, USA).
Cell proliferation was evaluated using the SRB assay. Briefly, cells were seeded in 96-well plates and incubated for 30 min (for 0-day controls) or treated with test compounds for the times indicated. After incubation, the cells were fixed, dried, and stained with 0.4% (w/v) SRB in 1% (v/v) acetic acid solution. Unbound dye was removed by washing, and stained cells were dissolved in 10 mM Tris (pH 10.0). Cell proliferation was then determined by measuring the absorbance at 515 nm.

[2] = test system: H3K79 methylation (DOT1L) in MDA-MB-231 cells; assay: Western blotting of H3K79 methylation in MDA-MB-231 cells; format: cell-based, human; details: indicated concentrations, 48 h
Procedure: (§1) Total cell lysates were prepared in 2× sample loading buffer [250 mM Tris-HCl (pH 6.8), 10% glycerol, 4% sodium dodecyl sulfate (SDS), 2% β-mercaptoethanol, 0.006% bromophenol blue, 5 mM sodium orthovanadate, and 50 mM sodium fluoride; Bio-Rad, Hercules, CA, USA]. The protein concentrations of samples were quantified using the bicinchoninic acid (BCA) method and a BCA Protein Assay Kit (Thermo Fisher Scientific, Waltham, MA, USA). Equal amounts of protein (5–20 μg) were separated by 6–13% SDS-polyacrylamide gel electrophoresis (PAGE) and transferred to polyvinylidene fluoride membranes (Millipore, Bedford, MA, USA). The membranes were blocked with 5% bovine serum albumin (Sigma-Aldrich) and then probed with anti-DOT1L, anti-H3K79me2, anti-β-Actin, anti-histone H3, anti-H3K4me2, anti-H3K27me2, anti-H3K36me2, anti-H3K79me1, anti-H3K79me3, and anti-Vimentin antibodies purchased from Cell Signaling Technology (Beverly, MA, USA) or with anti-E-cadherin and anti-N-cadherin antibodies purchased from (BD Biosciences, San Jose, CA, USA). The blots were detected using a WEST-Queen detection system (iNtRON Biotechnology, Seongnam, Korea).

MDA-MB-231 cells = assay: Wound healing assay (cell migration); format: cell-based, human; details: 24 h
Procedure: MDA-MB-231 human TNBC cells were grown to 90% confluence in a 6-well plate. Subsequently, each cell monolayer was artificially wounded using a Scratcher (SPL Life Sciences, Pocheon, Republic of Korea), and the detached cells were removed by washing with phosphate-buffered saline (PBS, Invitrogen Corp., Carlsbad, CA, USA). The wounded cultures were then incubated with medium containing 1% FBS and various concentrations of 9l and PsA for 24 h. The wounds were photographed at 0 and 24 h under an inverted microscope (Olympus, Tokyo, Japan). The wound areas were quantified using ImageJ software (National Institutes of Health, Bethesda, MD, USA) and presented as the percent wound healing (%) relative to the wound area at 0 h.

[3] = test system: E-cadherin, N-cadherin, vimentin in MDA-MB-231 cells; assay: Western blotting of EMT biomarkers in MDA-MB-231 cells; format: cell-based, human; details: 24 h
Procedure: as §1

[4] = test system: MDA-MB-231/Luc cells-implanted orthotopic mouse model; assay: MDA-MB-231/Luc-implanted orthotopic mouse tumor model; format: in vivo; details: for tumor growth inhibition rate: end of experiment
Procedure: All animal experiments were conducted following the guidelines approved by the Seoul National University Institutional Animal Care and Use Committee (IACUC; permission number: SNU-180430-4-1). Female nude mice (BALB/c-nu), 4 weeks old, were purchased from Central Laboratory Animal, Inc. (Seoul, Korea) and housed under pathogen-free conditions with a 12 h light-dark schedule. Luciferase expressing MDA-MB-231 cells were inoculated orthotopically into the fourth fat pad of mice (1 × 10^7 cells in 100 μL of 50:50 PBS/Matrigel) using a 29-gauge needle. Two weeks after implantation, mice were randomized into vehicle control and treatment groups of six animals per group and were administered with vehicle (EtOH/Cremophor/Normal saline = 5:5:90), 9l (10 or 30 mg/kg body weight), EPZ-5676 (30 mg/kg body weight), or paclitaxel (5 mg/kg body weight, Sigma-Aldrich) as a positive reference control. Compounds were administered intraperitoneally three times per week for 38 days. An additional week later, anesthetized mice were positioned in IVIS (PerkinElmer, Waltham, MA, USA) and were imaged 15 min after injection of 150 mg/kg D-luciferin (Gold Biotechnology, St. Louis, MO, USA) resuspended in DPBS (w/o calcium or magnesium). Mice were euthanized and primary tumors and lungs were excised, weighed, and frozen for further biochemical analysis. The length (L), width (W), and height (H) of the tumors were also measured using a digital slide caliper (Mitutoyo, Kawasaki, Japan) once a week, and tumor volumes (mm^3) were estimated by the formula LWH/2. Toxicity was evaluated based on body weight loss.
A portion of the frozen tumors excised from nude mice on the termination day of the experiment was homogenized using a hand-held homogenizer in complete lysis buffer (Active Motif, Carlsbad, CA, USA). Aliquots were stored at −80 °C, and the levels of protein expression in the tumor lysates were determined. The protein concentrations in the tumor lysates were measured using the Bradford assay.

[5] = IVIS imaging, vs vehicle-treated control
[6] = western blotting of tumor lysates

SMILES: CC(C)(C)c1ccc(C/C(=N\O)C(=O)NCC[Se]Sc2ccccc2)cc1 [9l, (E)-3-(4-(tert-Butyl)phenyl)-2-(hydroxyimino)-N-(2-((phenylthio)selanyl)ethyl)propanamide]
- pIC50 [1]: 4.59
- H3K79 methylations [2]: effectively suppressed H3K79 methylations in a concentration-dependent manner
- wound closure (cell migration) (MDA-MB-231 cells): significantly inhibited
- E-cadherin protein expression [3]: upregulation
- N-cadherin protein expression [3]: downregulation
- vimentin protein expression [3]: downregulation
- tumor growth inhibition rate ([4]; 10 mg/kg i.p., three times per week for 38 days): 44.0%
- tumor growth inhibition rate ([4]; 30 mg/kg i.p., three times per week for 38 days): 55.8%
- toxicity / body weight change ([4]; 10 or 30 mg/kg i.p., three times per week for 38 days): No overt toxicity or changes in body weight
- luminescence signal intensity from the primary tumor sites [4, 5]: decreased
- luminescence signal intensity in excised lung tissues (lung metastasis) [4, 5]: efficiently suppressed
- E-cadherin level in excised tumors [4, 6]: upregulated
- H3K79me2 protein level in excised tumors [4, 6]: downregulated
- Ki-67 expression in tumor tissues [4, 6]: significantly suppressed
- N-cadherin protein level in excised tumors [4, 6]: downregulated
- vimentin protein level in excised tumors [4, 6]: downregulated
